Measurements reported in patent publication US20250215012A1, “IKZF2 DEGRADERS AND USES THEREOF” (REGENTS OF THE UNIVERSITY OF MICHIGAN, priority 2022, published 2025).
One block for each molecule: values may come before it.

Target: IKZF2 (Homo sapiens (Human), UniProt Q96SW2+Q9UKS7)
Assay: IKZF2 HiBiT Assay (Jurkat-IKZF2-HiBiT cell line)
Type: cell-based
Conditions: Jurkat-IKZF2-HiBiT cells, 24 hours; for DC50: read-out: HiBit assay degradation analysis DC50; for Dmax: read-out: HiBit assay degradation analysis Dmax
Outline: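 IKZF2 degradation was assessed as HiBiT luminescence in Jurkat-IKZF2-HiBiT cells, using lytic detection after 24 h of compound treatment at 37 °C, 5% CO2.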

Sequence of IKZF2 (Q9UKS7 whole entry): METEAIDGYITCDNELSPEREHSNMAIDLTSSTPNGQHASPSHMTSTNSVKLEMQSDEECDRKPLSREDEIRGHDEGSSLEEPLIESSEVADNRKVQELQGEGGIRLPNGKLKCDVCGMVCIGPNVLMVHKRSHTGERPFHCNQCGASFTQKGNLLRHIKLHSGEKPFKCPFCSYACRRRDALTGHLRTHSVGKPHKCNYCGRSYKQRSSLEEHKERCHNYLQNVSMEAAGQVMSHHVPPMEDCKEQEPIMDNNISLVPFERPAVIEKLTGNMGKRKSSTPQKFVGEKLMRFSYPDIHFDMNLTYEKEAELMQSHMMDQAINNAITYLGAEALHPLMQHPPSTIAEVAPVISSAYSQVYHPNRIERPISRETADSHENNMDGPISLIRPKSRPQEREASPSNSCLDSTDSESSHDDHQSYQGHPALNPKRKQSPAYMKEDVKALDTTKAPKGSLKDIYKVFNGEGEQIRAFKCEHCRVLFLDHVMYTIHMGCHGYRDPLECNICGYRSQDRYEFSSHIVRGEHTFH
Sequence of IKZF2 (Q96SW2 whole entry): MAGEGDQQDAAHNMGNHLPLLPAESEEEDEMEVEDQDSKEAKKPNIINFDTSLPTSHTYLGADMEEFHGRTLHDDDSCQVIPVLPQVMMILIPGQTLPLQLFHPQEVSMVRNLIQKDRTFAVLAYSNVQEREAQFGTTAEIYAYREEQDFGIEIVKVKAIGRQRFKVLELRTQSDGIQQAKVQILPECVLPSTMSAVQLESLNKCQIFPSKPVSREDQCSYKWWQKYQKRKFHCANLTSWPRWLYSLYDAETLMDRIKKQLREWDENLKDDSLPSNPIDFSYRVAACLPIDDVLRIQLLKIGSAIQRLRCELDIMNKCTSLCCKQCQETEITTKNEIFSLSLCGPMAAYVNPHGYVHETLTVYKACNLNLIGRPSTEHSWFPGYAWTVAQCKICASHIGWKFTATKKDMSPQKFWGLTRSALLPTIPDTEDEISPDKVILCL
Sequence of IKZF2 (Q16531 whole entry partner): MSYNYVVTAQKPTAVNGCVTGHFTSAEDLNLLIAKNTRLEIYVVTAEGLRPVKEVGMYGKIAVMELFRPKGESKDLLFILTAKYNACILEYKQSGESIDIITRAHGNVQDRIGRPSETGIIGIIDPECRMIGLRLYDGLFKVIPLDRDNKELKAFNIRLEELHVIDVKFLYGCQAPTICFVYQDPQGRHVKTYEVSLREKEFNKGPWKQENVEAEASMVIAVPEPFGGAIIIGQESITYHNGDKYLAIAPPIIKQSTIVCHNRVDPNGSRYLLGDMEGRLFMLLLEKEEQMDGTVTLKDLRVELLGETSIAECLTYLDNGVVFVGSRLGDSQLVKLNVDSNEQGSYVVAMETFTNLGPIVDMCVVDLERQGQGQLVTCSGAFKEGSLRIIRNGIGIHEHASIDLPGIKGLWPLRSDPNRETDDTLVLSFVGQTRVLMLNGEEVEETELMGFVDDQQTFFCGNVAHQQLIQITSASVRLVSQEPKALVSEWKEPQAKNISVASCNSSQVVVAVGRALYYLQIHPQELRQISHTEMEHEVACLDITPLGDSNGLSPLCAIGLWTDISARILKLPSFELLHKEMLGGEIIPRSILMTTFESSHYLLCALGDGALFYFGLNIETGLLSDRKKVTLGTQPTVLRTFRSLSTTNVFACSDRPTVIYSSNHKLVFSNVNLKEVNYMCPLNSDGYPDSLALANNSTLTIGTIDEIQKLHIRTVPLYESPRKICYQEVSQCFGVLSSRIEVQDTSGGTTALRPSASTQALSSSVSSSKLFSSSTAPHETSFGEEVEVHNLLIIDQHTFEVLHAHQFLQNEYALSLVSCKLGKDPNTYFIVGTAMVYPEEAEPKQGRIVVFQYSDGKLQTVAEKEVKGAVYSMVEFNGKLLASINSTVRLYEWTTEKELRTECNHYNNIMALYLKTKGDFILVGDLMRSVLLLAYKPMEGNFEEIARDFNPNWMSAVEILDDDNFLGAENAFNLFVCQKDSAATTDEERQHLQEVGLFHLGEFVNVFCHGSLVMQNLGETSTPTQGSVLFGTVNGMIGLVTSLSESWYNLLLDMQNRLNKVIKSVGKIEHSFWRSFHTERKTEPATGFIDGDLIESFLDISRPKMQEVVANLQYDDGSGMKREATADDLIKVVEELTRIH

SMILES: O=C1CCC(N2Cc3c(ccc4c3OCC43CCN(Cc4ncsc4-c4ccccc4)CC3)C2=O)C(=O)N1 (stereo not shown) [Compound A158, 3-(6-oxo-1′-((5-phenylthiazol-4-yl)methyl)-6,8-dihydro-2H,7H-spiro[furo[2,3-e]isoindole-3,4′-piperidin]-7-yl)piperidine-2,6-dione]
DC50: > 0.5 µM
Dmax: < 40%

SMILES: O=C1CCC(N2Cc3c(ccc4c3OCC43CCN(Cc4cnn5c4CCCC5)CC3)C2=O)C(=O)N1 (stereo not shown) [Compound A245, 3-(6-oxo-1′-((4,5,6,7-tetrahydropyrazolo[1,5-a]pyridin-3-yl)methyl)-6,8-dihydro-2H,7H-spiro[furo[2,3-e]isoindole-3,4′-piperidin]-7-yl)piperidine-2,6-dione]
DC50: 0.2 to 0.5 µM
Dmax: 40 to 60%

SMILES: O=C1CC[C@H](N2Cc3c(ccc4c3OCC43CCN(Cc4cccc(-c5cnn(CC6COC6)c5)c4)CC3)C2=O)C(=O)N1 [Compound A271, (S)-3-(1′-(3-(1-(oxetan-3-ylmethyl)-1H-pyrazol-4-yl)benzyl)-6-oxo-6,8-dihydro-2H,7H-spiro[furo[2,3-e]isoindole-3,4′-piperidin]-7-yl)piperidine-2,6-dione]
DC50: > 0.5 µM
Dmax: < 40%

SMILES: O=C1CCC(N2Cc3c(ccc4c3OCC43CCN(Cc4ccc5oncc5c4)CC3)C2=O)C(=O)N1 (stereo not shown) [Compound A60, 3-(1′-(benzo[d]isoxazol-5-ylmethyl)-6-oxo-6,8-dihydro-2H,7H-spiro[furo[2,3-e]isoindole-3,4′-piperidin]-7-yl)piperidine-2,6-dione]
DC50: > 0.5 µM
Dmax: 40 to 60%

SMILES: O=C1CCC(N2Cc3c(ccc4c3OCC43CCN(Cc4cnn(-c5ccc(Cl)cc5)c4)CC3)C2=O)C(=O)N1 (stereo not shown) [Compound A314, 3-(1′-((1-(4-chlorophenyl)-1H-pyrazol-4-yl)methyl)-6-oxo-6,8-dihydro-2H,7H-spiro[furo[2,3-e]isoindole-3,4′-piperidin]-7-yl)piperidine-2,6-dione]
DC50: < 0.05 µM
Dmax: 60 to 80%

SMILES: N#Cc1ccc(CN2CCC3(CC2)COc2c3ccc3c2CN(C2CCC(=O)NC2=O)C3=O)cc1 (stereo not shown) [Compound A195, 4-((7-(2,6-dioxopiperidin-3-yl)-6-oxo-7,8-dihydro-2H,6H-spiro[furo[2,3-e]isoindole-3,4′-piperidin]-1′-yl)methyl)benzonitrile]
DC50: > 0.5 µM
Dmax: < 40%

SMILES: CCn1ncc2ccc(CN3CCC4(CC3)COc3c4ccc4c3CN([C@H]3CCC(=O)NC3=O)C4=O)cc21 [Compound A298, (S)-3-(1′-((1-ethyl-1H-indazol-6-yl)methyl)-6-oxo-6,8-dihydro-2H,7H-spiro[furo[2,3-e]isoindole-3,4′-piperidin]-7-yl)piperidine-2,6-dione]
DC50: 0.05 to 0.2 µM
Dmax: 60 to 80%

SMILES: CS(=O)(=O)c1cccc(CN2CCC3(CC2)COc2c3ccc3c2CN(C2CCC(=O)NC2=O)C3=O)c1 (stereo not shown) [Compound A235, 3-(1′-(3-(methylsulfonyl)benzyl)-6-oxo-6,8-dihydro-2H,7H-spiro[furo[2,3-e]isoindole-3,4′-piperidin]-7-yl)piperidine-2,6-dione]
DC50: > 0.5 µM
Dmax: < 40%

DC50: > 0.5 µM
SMILES: O=C1CCC(N2Cc3c(ccc4c3OCC43CCN(Cc4cnn(S(=O)(=O)c5ccc(F)c(F)c5)c4)CC3)C2=O)C(=O)N1 [Compound A353, (S)-3-(1′-((1-((3,4-difluorophenyl)sulfonyl)-1H-pyrazol-4-yl)methyl)-6-oxo-6,8-dihydro-2H,7H-spiro[furo[2,3-e]isoindole-3,4′-piperidin]-7-yl)piperidine-2,6-dione]

SMILES: Cn1ccc2cccc(CN3CCC4(CC3)COc3c4ccc4c3CN(C3CCC(=O)NC3=O)C4=O)c21 (stereo not shown) [Compound A74, 3-(1′-((1-methyl-1H-indol-7-yl)methyl)-6-oxo-6,8-dihydro-2H,7H-spiro[furo[2,3-e]isoindole-3,4′-piperidin]-7-yl)piperidine-2,6-dione]
DC50: 0.05 to 0.2 µM
Dmax: 60 to 80%
